In patent US5023244A, “Anti-dementia agents” (Hoechst Japan Limited, priority 1986, dated 1991):

Columns and labels:
[1] = Passive avoidance task, memory retention test after cycloheximide-induced amnesia (retrieval process); format: in vivo, ICR male mice; conditions: cycloheximide 120 mg/kg i.p., test 24 h after training
Text: The passive avoidance task and the induction of amnesia by cycloheximide are experimental methods usually employed (Naoki Yamazaki et al.: Jap. J. Psychopharmacol., 3, 127 (1983)). The detailed method is described below. The apparatus used for the experiment was a plastic box 24 cm in height, 20 cm in width and 23 cm in length with a floor of iron grids at the corner of which was placed a platform 8 cm in length, 8 cm in width and 1.5 cm in height. When a mouse placed in the box was subjected to electric stimulus with a current of 0.3 mA for a period of approximately 3 seconds, the mouse escaped onto the platform. After subsequent non-stimulus period of 8 seconds, the mouse was subjected to the electric stimulus for an additional period of approximately 5 seconds. By this method, the mouse acquired memory of aversion that the electric stimulus would be delivered whenever the animal got off the platform, thus the passive avoidance task was established. The learning was judged to be established if the mouse placed on the platform under non-stimulus condition immediately after the training remained on it for 30 seconds or longer.
The test to observe whether or not a mouse retained memory of aversion was performed 24 hours after the training and percent memory retention was calculated according to the following equation: [formula]
In order to induce deficits of memory, the animal was intraperitoneally administered 15 min prior to the training with a physiological saline solution of cycloheximide at a dose of 120 mg/kg., and then subjected to the electric stimulus for training.
A memory retention test was performed 24 hours after training. An intraperitoneal administration was done 75 min. prior to the test respectively for L-N^6 -phenylisopropyladenosine (Compound A) and N^6 -cyclohexyladenosine (Compound C), 60 min. prior to the test respectively for 2-chloroadenosine(Compound B) and adenosine-5'-(N-cyclopropyl)carboxamide (Compound E) and 45 min. prior to the test for adenosine-5'-(N-ethyl)carboxamide (Compound D).

[2] = Acute toxicity (LD50) in mice by intraperitoneal administration; conditions: mouse, in vivo, ip
[3] = 100 μg/kg i.p., 75 min prior to test

`OC[C@H]1O[C@@H](n2cnc3c(NC4CCCCC4)ncnc32)[C@H](O)[C@@H]1O` [Compound C, N^6 -cyclohexyladenosine] showed a Percent memory retention ([1]; 10 μg/kg i.p., 75 min prior to test) of 14.8%, a Percent memory retention [1, 3] of 20.8% and a Percent memory retention ([1]; 300 μg/kg i.p., 75 min prior to test) of 66.7%.

For `Nc1nc(Cl)nc2c1ncn2[C@@H]1O[C@H](CO)[C@@H](O)[C@H]1O` [Compound B, 2-chloroadenosine], the Percent memory retention ([1]; 500 μg/kg i.p., 60 min prior to test) was 35.0%, the Percent memory retention ([1]; 1000 μg/kg i.p., 60 min prior to test) was 52.4% and the LD50 [2] was 45 mg/kg.

With `C[C@H](Cc1ccccc1)Nc1ncnc2c1ncn2[C@@H]1O[C@H](CO)[C@@H](O)[C@H]1O` [Compound A, L-N^6 -phenylisopropyladenosine] the Percent memory retention ([1]; 50 μg/kg i.p., 75 min prior to test) was 36.8%, the Percent memory retention [1, 3] was 55.0% and the LD50 [2] was 31 mg/kg.

With `Nc1ncnc2c1ncn2[C@@H]1O[C@H](C(=O)NC2CC2)[C@@H](O)[C@H]1O` [Compound E, adenosine-5'-(N-cyclopropyl)carboxamide] the Percent memory retention ([1]; 1 μg/kg i.p., 60 min prior to test) was 25.0%, the Percent memory retention ([1]; 3 μg/kg i.p., 60 min prior to test) was 40.0% and the Percent memory retention ([1]; 10 μg/kg i.p., 60 min prior to test) was 62.1%. For the same compound, the Percent memory retention ([1]; 30 μg/kg i.p., 60 min prior to test) was 66.7%.

With `CCNC(=O)[C@H]1O[C@@H](n2cnc3c(N)ncnc32)[C@H](O)[C@@H]1O` [Compound D, adenosine-5'-(N-ethyl)carboxamide] the Percent memory retention ([1]; 3 μg/kg i.p., 45 min prior to test) was 39.3%, the Percent memory retention ([1]; 7 μg/kg i.p., 45 min prior to test) was 42.3% and the Percent memory retention ([1]; 10 μg/kg i.p., 45 min prior to test) was 51.4%.
